Test results taken from patent US7834005B2, “Pyrrolobenzodiazepine derivatives, compositions comprising the same and methods related thereto” (The United States of America as represented by the …, priority 2003, dated 2010).
Several values for one entry are separate records, joined by “and”; a condition that tells them apart may be missing. Equal values may be shown once.

Assays:
[1] = in vivo efficacy, UACC-62 (melanoma) subcutaneous tumor model; design: species or system athymic mice; conditions: athymic, mouse, in vivo, UACC-62, Early-SC
Experimental: (§1) NSC 694501 was evaluated for in vivo efficacy in athymic mice bearing 8 subcutaneous tumor models: LOX and UACC-62 (melanoma), OVCAR-3 and OVCAR-5 (ovarian ca), MDA-MB-435 (breastca), SF-295 and C-6 (glioma), and LS-174T (colonca). The models were selected on the basis of hollow fiber assays and in vitro time course assays.
(§2) A qDx5 schedule conferred better efficacy than a q4Dx3 schedule in each of the 4 models tested on two schedules. NSC 694501 was active over a wide dosage range in athymic mice using compound prepared fresh just prior to injection in 1% EtOH vehicle: On a qDx5 schedule, the maximum tolerated dose was approximately 120 μg/kg/dose and the minimum effective dose in one of the most sensitive models (SF-295) was 16 μg/kg/dose.

UACC-62 (melanoma) = test: as above; design: species or system athymic mice; conditions: UACC-62, Early-SC, intravenous
Experimental: as §1, §2

[2] = in vivo efficacy, OVCAR-5 (ovarian ca) subcutaneous tumor model; design: species or system athymic mice; conditions: athymic, mouse, in vivo, OVCAR-5, Early-SC
Experimental: as §1, §2

OVCAR-5 (ovarian ca) = test: as above; design: species or system athymic mice; conditions: OVCAR-5, Early-SC, intravenous
Experimental: as §1, §2

[3] = in vivo efficacy, SF-295 (glioma) subcutaneous tumor model; design: species or system athymic mice; conditions: athymic, mouse, in vivo, SF-295, Early-SC
Experimental: as §1, §2

SF-295 (glioma) = test: as above; design: species or system athymic mice; conditions: for BW Loss / Growth Delay % [(T − C)/C] / Optimal % T/C / value in parentheses in Growth Delay column / tumor free (tf): SF-295, Early-SC, intravenous
Experimental: as §1, §2

C-6 (rat glioma) = test: in vivo efficacy, C-6 (rat glioma) in nude rats; conditions: i.v.; for BW Loss / Growth Delay % [(T − C)/C] / Optimal % T/C: C-6, Early-SC, nude rats

With `C=C1C[C@H]2C=Nc3cc(OCCCOc4cc5c(cc4OC)C(=O)N4CC(=C)C[C@H]4C=N5)c(OC)cc3C(=O)N2C1` [NSC 694501] the MTD at 9 days ([1]; Q4D X3, intravenous) was 0.45 mg/kg, the MTD at 5 days ([1]; QD X5, intravenous) was 0.054 mg/kg and the “BW Loss” value (UACC-62 (melanoma); Q4D X3, .45 mg/kg/dose) was 20.9%. For the same molecule, the “Growth Delay % [(T − C)/C]” value (UACC-62 (melanoma); Q4D X3, .45 mg/kg/dose) was 43%, the “Optimal % T/C” value (UACC-62 (melanoma); Q4D X3, .45 mg/kg/dose) was 28% and the “BW Loss” value (UACC-62 (melanoma); QD X5, 0.054 mg/kg/dose) was 20.2%. The “Growth Delay % [(T − C)/C]” value (UACC-62 (melanoma); QD X5, 0.054 mg/kg/dose) was 150%, the “Optimal % T/C” value (UACC-62 (melanoma); QD X5, 0.054 mg/kg/dose) was 26% and the “value in parentheses in Growth Delay column” value (shortened to “value in parentheses”) (UACC-62 (melanoma); QD X5, 0.054 mg/kg/dose) was 0.9 L. The MTD at 9 days ([2]; Q4D X3, intravenous) was 0.45 mg/kg, the MTD at 5 days ([2]; QD X5, intravenous) was 0.081 mg/kg and the “BW Loss” value (OVCAR-5 (ovarian ca); Q4D X3, 0.45 mg/kg/dose) was 21.2%. The “Growth Delay % [(T − C)/C]” value (OVCAR-5 (ovarian ca); Q4D X3, 0.45 mg/kg/dose) was 32%, the “Optimal % T/C” value (OVCAR-5 (ovarian ca); Q4D X3, 0.45 mg/kg/dose) was 38% and the “BW Loss” value (OVCAR-5 (ovarian ca); QD X5, 0.081 mg/kg/dose) was 2.6%. For the same molecule, the “Growth Delay % [(T − C)/C]” value (OVCAR-5 (ovarian ca); QD X5, 0.081 mg/kg/dose) was 102%, the “Optimal % T/C” value (OVCAR-5 (ovarian ca); QD X5, 0.081 mg/kg/dose) was 13% and the MTD at 9 days ([3]; Q4D X3, intravenous) was under 0.3 mg/kg. For the same molecule, the MTD at 5 days ([3]; QD X5, intravenous) was 0.12 mg/kg, the “BW Loss” value (SF-295 (glioma); Q4D X3, 0.11 mg/kg/dose) was 0.1% and the “Growth Delay % [(T − C)/C]” value (SF-295 (glioma); Q4D X3, 0.11 mg/kg/dose) was 60%. The “Optimal % T/C” value (SF-295 (glioma); Q4D X3, 0.11 mg/kg/dose) was 10%, the “value in parentheses” value (SF-295 (glioma); Q4D X3, 0.11 mg/kg/dose) was 0.0 L and the “BW Loss” value (SF-295 (glioma); Q4D X3, 0.16 mg/kg/dose) was 4.3%. The “Growth Delay % [(T − C)/C]” value (SF-295 (glioma); Q4D X3, 0.16 mg/kg/dose) was 103%, the “Optimal % T/C” value (SF-295 (glioma); Q4D X3, 0.16 mg/kg/dose) was 3% and the “value in parentheses” value (SF-295 (glioma); Q4D X3, 0.16 mg/kg/dose) was 0.9 L. For the same molecule, the “BW Loss” value (SF-295 (glioma); Q4D X3, 0.24 mg/kg/dose) was 10.2%, the “Growth Delay % [(T − C)/C]” value (SF-295 (glioma); Q4D X3, 0.24 mg/kg/dose) was 227% and the “Optimal % T/C” value (SF-295 (glioma); Q4D X3, 0.24 mg/kg/dose) was 1 (1 tf) %. For the same molecule, the “tumor free (tf)” value (SF-295 (glioma); Q4D X3, 0.24 mg/kg/dose) was 1 (1 tf), the “value in parentheses” value (SF-295 (glioma); Q4D X3, 0.24 mg/kg/dose) was 3.2 L and the “BW Loss” value (SF-295 (glioma); Q4D X3, <0.30 mg/kg/dose) was 24.0%. For the same molecule, the “tumor free (tf)” value (SF-295 (glioma); Q4D X3, <0.30 mg/kg/dose, T/C unevaluable) was “ue (2 tf)”, the “BW Loss” value (SF-295 (glioma); QD X5, 0.016 mg/kg/dose) was 0.0% and the “Growth Delay % [(T − C)/C]” value (SF-295 (glioma); QD X5, 0.016 mg/kg/dose) was 31%. The “Optimal % T/C” value (SF-295 (glioma); QD X5, 0.016 mg/kg/dose) was 33%, the “BW Loss” value (SF-295 (glioma); QD X5, 0.024 mg/kg/dose) was 3.6% and the “Growth Delay % [(T − C)/C]” value (SF-295 (glioma); QD X5, 0.024 mg/kg/dose) was 61%. For the same molecule, the “Optimal % T/C” value (SF-295 (glioma); QD X5, 0.024 mg/kg/dose) was 12%, the “BW Loss” value (SF-295 (glioma); QD X5, 0.036 mg/kg/dose) was 3.5% and the “Growth Delay % [(T − C)/C]” value (SF-295 (glioma); QD X5, 0.036 mg/kg/dose) was 69%. For the same molecule, the “Optimal % T/C” value (SF-295 (glioma); QD X5, 0.036 mg/kg/dose) was 14%, the “BW Loss” value (SF-295 (glioma); QD X5, 0.054 mg/kg/dose) was 4.7% and 2.8% and the “Growth Delay % [(T − C)/C]” value (SF-295 (glioma); QD X5, 0.054 mg/kg/dose) was 165% and 206%. The “Optimal % T/C” value (SF-295 (glioma); QD X5, 0.054 mg/kg/dose) was 2% and 0%, the “tumor free (tf)” value (SF-295 (glioma); QD X5, 0.054 mg/kg/dose) was 1 tf and the “value in parentheses” value (SF-295 (glioma); QD X5, 0.054 mg/kg/dose) was 2.6 L and 3.0 L. For the same molecule, the “BW Loss” value (SF-295 (glioma); QD X5, 0.08 mg/kg/dose) was 0.0%, the “Growth Delay % [(T − C)/C]” value (SF-295 (glioma); QD X5, 0.08 mg/kg/dose) was 131% and the “Optimal % T/C” value (SF-295 (glioma); QD X5, 0.08 mg/kg/dose) was 3%. For the same molecule, the “value in parentheses” value (SF-295 (glioma); QD X5, 0.08 mg/kg/dose) was 2.0 L, the “BW Loss” value (SF-295 (glioma); QD X5, 0.12 mg/kg/dose) was 7.5% and 5.3% and the “Growth Delay % [(T − C)/C]” value (SF-295 (glioma); QD X5, 0.12 mg/kg/dose) was 241% and 196%. For the same molecule, the “Optimal % T/C” value (SF-295 (glioma); QD X5, 0.12 mg/kg/dose) was 4 (4 tf) % and 2 (2 tf) %, the “tumor free (tf)” value (SF-295 (glioma); QD X5, 0.12 mg/kg/dose) was 4 (4 tf) and 2 (2 tf) and the “value in parentheses” value (SF-295 (glioma); QD X5, 0.12 mg/kg/dose) was 3.1 L and 3.2 L. The minimum effective dose (SF-295 (glioma); SF-295, qDx5 schedule, athymic mice) was 16 μg/kg/dose, the “BW Loss” value (C-6 (rat glioma); QD X5, 0.018 mg/kg) was 0.0% and the “Growth Delay % [(T − C)/C]” value (C-6 (rat glioma); QD X5, 0.018 mg/kg) was 13%. The “Optimal % T/C” value (C-6 (rat glioma); QD X5, 0.018 mg/kg) was 56%, the “BW Loss” value (C-6 (rat glioma); QD X5, 0.027 mg/kg) was 6.3% and the “Growth Delay % [(T − C)/C]” value (C-6 (rat glioma); QD X5, 0.027 mg/kg) was 20%. For the same molecule, the “Optimal % T/C” value (C-6 (rat glioma); QD X5, 0.027 mg/kg) was 47%, the “BW Loss” value (C-6 (rat glioma); QD X5, 0.040 mg/kg) was 0.8% and the “Growth Delay % [(T − C)/C]” value (C-6 (rat glioma); QD X5, 0.040 mg/kg) was 49%. For the same molecule, the “Optimal % T/C” value (C-6 (rat glioma); QD X5, 0.040 mg/kg) was 24% and the tolerability and efficacy (C-6 (rat glioma); nude rats bearing C-6, 27 and 40 μg/kg/dose, qDx5) was “well tolerated and efficacious”.
